Assays:
[1] = tested on: release of APPs produced by α-secretase; assay: release of APPs in the culture medium of neuroblastoma cell line SH-SY5Y; format: cell-based; conditions: 10 μM; APPs secreted in culture medium of SH-SY5Y; controls = 100
Protocol: It is in fact known that proteolytic cleavage of Alzheimer Precursor Protein (APP) is mediated both by β- and γ-secretase, inducing an increased production of amyloid peptide Ab1-42 (which also plays a central role in the appearance of Alzheimer's disease), and […], giving raise to soluble APPs which have no pathogenic activity (Eslr W. P., Wolfe M. S., Science, 293, 1449-54, 2001).
The effect of the compounds of the invention on the release of APPs produced by α-secretase was evaluated in the culture medium of a neuroblastoma cell line (SH-SY5Y) according to the procedure described by Galbete J. L. et al. in Biochem J. 348, 307-313, 2000.

[2] = usual extraction and storage conditions; cited from earlier work

| Compound | APPs % [1] [%] | stability (in words) [2] |
| --- | --- | --- |
| CC(C)=CCC[C@]1(C)[C@@H](CC=C(C)C)C[C@]2(CC=C(C)C)C(=O)C(Cl)(CC=C(C)C)C(=O)[C@@]1(C(=O)C(C)C)C2=O (stereo partly shown) [Chlorohyperforin, 8-chlorohyperforin] | 627 | – |
| CC(C)=CCC[C@]1(C)[C@@H](CC=C(C)C)C[C@@]2(CC=C(C)C)C(=O)[C@]1(C(=O)C(C)C)C(=O)C(CC=C(C)C)=C2O [Hyperforin] | 296 | poorly stable |
| 8-chlorooctahydrohyperforin | 855 | – |
